Reference: patent US20130131161A1, “METHODS AND COMPOSITIONS FOR CARDIOVASCULAR DISEASES AND CONDITIONS” (priority 2009, published 2013)

Tested on: Human umbilical vein endothelial cells (HUVECs)
Test: eNOS activity analysis: NO, ONOO− and NO/ONOO− release from HUVECs of 50 genotyped donors in response to LA-419 (Example 2)
Format: cell-based
Settings: LA-419 5 μM
Experimental: Concurrent measurements of NO and ONOO^− were carried out with tandem electrochemical nanosensors combined into one working unit with a total diameter of 200-500 nm (FIG. 1). Their design was based on previously developed and well-characterized chemically modified carbon-fiber technology (Malinski and Taha, 1992; Lvovich and Scheeline, 1997). Each of the nanosensors was made by depositing a sensing material on the tip of a carbon fiber (length 4-5 μm, diameter 0.2-0.5 μm). The fibers were sealed with nonconductive epoxy and electrically connected to copper wires with conductive silver epoxy. A conductive film of polymeric nickel (II) tetrakis(3-methoxy-4-hydroxyphenyl)porphyrin for the NO-sensor and polymeric film of Mn (III) [2.2]paracyclophanylporphyrin was used for the ONOO^−-sensor.
A module of NO/ONOO^− nanosensors (diameter 1-2 μm) with a platinum wire (0.1 mm) counter electrode and saturated calomel reference electrode (SCE) were applied. Differential pulse voltammetry (DPV) and amperometry were performed with a computer-based Gamry VFP600 multichannel potentiostat. DPV was used to measure the basal NO and ONOO^− concentrations, and amperometry was used to measure changes in NO and ONOO^− concentrations from its basal level with time. The DPV current at the peak potential characteristic for NO oxidation (0.65 V) and ONOO^− reduction (−0.45 V) was directly proportional to the local concentrations of these compounds in the immediate vicinity of the sensor. Linear calibration curves (current vs. concentration) were constructed for each sensor from 10 nM to 3 μM before and after measurements with aliquots of NO and ONOO^− standard solutions, respectively. The detection limit of the sensors was 1.0 nM.
The quantification of each analyte (concentration in nM) was performed using a maximum current from amperograms and standard calibration curves. A reproducibility of measurements with nanosensors is relatively high (between 5-12%). […] The sensors were slowly raised 5±2 μm from the surface of a single endothelial cell. The eNOS agonist, calcium ionophore A23187 (CaI) as well as the different drugs were then added to the surrounding media at the cell surface with a nanoinjector that was also positioned by a computer controlled-micromanipulator.
This example describes the genotype-specific response of the three major eNOS variants to 1 μM and 5 μM concentrations of LA-419. The three major genetic polymorphisms studied were the Glu298Asp variant (E298D or 894G→T) in exon 7 of […], the −786T→C variant in the promoter region, and the intron 4 polymorphism (VNTR). All of these variants have possible effects on the cardiovascular system and endothelial dysfunction. For this study, human umbilical vein endothelial cells (HUVECs) from 50 donors between 18 and 32 years of age were used.
For the analysis several analysis techniques were employed. First, the effect of genotype on NO and ONOO^− release was explored within the different concentrations of LA-419 (control, 1 μM, 5 μM), calculated as the average peak release (nmols/L) of NO, ONOO^−, and NO/ONOO^−. The effect of genotype on the net increase in NO, ONOO^−, and NO/ONOO^− for LA-419 (1 μM and 5 μM) as compared to control was also measured. In addition, an analysis was done on the effect of genotype on the % change in NO, ONOO^−, and NO/ONOO^− production for LA-419 (1 μM and 5 μM), calculated as:
% Change=[(avg. LA-419−avg. control)/(avg. control)]*100
Finally, an evaluation was undertaken concerning the effect of genotype on the production of NO, ONOO^−, and NO/ONOO^− as the fold difference of control for LA-419 (1 μM and 5 μM), calculated as:
Fold Difference=(avg. LA-419)/(avg. control)
Within each calculation technique the results were compared for statistical significance using a non-parametric ANOVA Kruskal-Wallace test or a non-parametric Mann-Whitney U test. Statistical significance was set at a p-value <0.05 in a two-tailed distribution. […]

[1] = HUVECs Intron 4 variant b/a, a/a, c/c
[2] = HUVECs T-786C variant T/C & C/C

CC(=O)SC1COC2C(O[N+](=O)[O-])COC12 (stereo not drawn) [LA-419, S-(6-Nitro-oxi-hexahydro-furo[3,2-b]furan-3-1-il)thioacetate]
Peak release ONOO− (mean ± sd) (HUVECs G894T variant G/G): 288.82 (78.22) nmols/L
% Change Ratio, % Change NO/% Change ONOO− (mean ± sd) (HUVECs G894T variant G/T): −0.88 (0.60)
Net increase over control NO (mean ± sd) (HUVECs G894T variant G/T): 45.87 (19.24) nmols/L
Net increase over control NO/ONOO− (mean ± sd) (HUVECs G894T variant G/T): −0.94 (0.88)
Net increase over control ONOO− (mean ± sd) (HUVECs G894T variant G/T): −65.80 (26.77) nmols/L
Peak release NO (mean ± sd) (HUVECs G894T variant G/T): 400.63 (80.27) nmols/L
Peak release NO/ONOO− (mean ± sd) (HUVECs G894T variant G/T): 1.44 (0.49)
Peak release ONOO− (mean ± sd) (HUVECs G894T variant G/T): 300.15 (75.86) nmols/L
Net increase over control NO (mean ± sd) (HUVECs G894T variant G/T & T/T): 45.12 (21.46) nmols/L
Net increase over control NO/ONOO− (mean ± sd) (HUVECs G894T variant G/T & T/T): −0.91 (0.90)
Net increase over control ONOO− (mean ± sd) (HUVECs G894T variant G/T & T/T): −69.51 (27.46) nmols/L
Peak release NO (mean ± sd) (HUVECs G894T variant G/T & T/T): 398.42 (88.37) nmols/L
Peak release NO/ONOO− (mean ± sd) (HUVECs G894T variant G/T & T/T): 1.39 (0.53)
Peak release ONOO− (mean ± sd) (HUVECs G894T variant G/T & T/T): 314.55 (84.72) nmols/L
% Change Ratio, % Change NO/% Change ONOO− (mean ± sd) (HUVECs G894T variant T/T): −0.80 (0.73)
Net increase over control NO (mean ± sd) (HUVECs G894T variant T/T): 42.40 (30.77) nmols/L
Net increase over control NO/ONOO− (mean ± sd) (HUVECs G894T variant T/T): −0.78 (1.05)
Net increase over control ONOO− (mean ± sd) (HUVECs G894T variant T/T): −82.87 (28.56) nmols/L
Peak release NO (mean ± sd) (HUVECs G894T variant T/T): 390.47 (124.39) nmols/L
Peak release NO/ONOO− (mean ± sd) (HUVECs G894T variant T/T): 1.21 (0.68)
Peak release ONOO− (mean ± sd) (HUVECs G894T variant T/T): 366.40 (103.55) nmols/L
Net increase over control NO (mean ± sd) (HUVECs Intron 4 variant a/a): 52.00 (16.74) nmols/L
Net increase over control NO/ONOO− (mean ± sd) (HUVECs Intron 4 variant a/a): 0.41 (0.19)
Net increase over control ONOO− (mean ± sd) (HUVECs Intron 4 variant a/a): −63.78 (14.11) nmols/L
Peak release NO (mean ± sd) (HUVECs Intron 4 variant a/a): 438.33 (79.68) nmols/L
Peak release NO/ONOO− (mean ± sd) (HUVECs Intron 4 variant a/a): 1.48 (0.64)
Peak release ONOO− (mean ± sd) (HUVECs Intron 4 variant a/a): 331.22 (117.30) nmols/L
Net increase over control NO (mean ± sd) (HUVECs Intron 4 variant b/a): 54.53 (23.50) nmols/L
Net increase over control NO/ONOO− (mean ± sd) (HUVECs Intron 4 variant b/a): 0.45 (0.22)
Net increase over control ONOO− (mean ± sd) (HUVECs Intron 4 variant b/a): −72.30 (25.81) nmols/L
Peak release NO (mean ± sd) (HUVECs Intron 4 variant b/a): 375.20 (81.45) nmols/L
Peak release NO/ONOO− (mean ± sd) (HUVECs Intron 4 variant b/a): 1.42 (0.61)
Peak release ONOO− (mean ± sd) (HUVECs Intron 4 variant b/a): 295.73 (85.11) nmols/L
Net increase over control NO (mean ± sd) [1]: 47.30 (22.42) nmols/L
Net increase over control NO/ONOO− (mean ± sd) [1]: 0.44 (0.20)
Net increase over control ONOO− (mean ± sd) [1]: −72.31 (23.65) nmols/L
Peak release NO (mean ± sd) [1]: 392.83 (80.05) nmols/L
Peak release NO/ONOO− (mean ± sd) [1]: 1.43 (0.57)
Peak release ONOO− (mean ± sd) [1]: 305.67 (86.01) nmols/L
Net increase over control NO (mean ± sd) (HUVECs Intron 4 variant b/b): 47.30 (22.42) nmols/L
Net increase over control NO/ONOO− (mean ± sd) (HUVECs Intron 4 variant b/b): 0.43 (0.20)
Net increase over control ONOO− (mean ± sd) (HUVECs Intron 4 variant b/b): −70.32 (30.56) nmols/L
Peak release NO (mean ± sd) (HUVECs Intron 4 variant b/b): 400.83 (81.57) nmols/L
Peak release NO/ONOO− (mean ± sd) (HUVECs Intron 4 variant b/b): 1.46 (0.51)
Peak release ONOO− (mean ± sd) (HUVECs Intron 4 variant b/b): 298.99 (79.66) nmols/L
Net increase over control NO (mean ± sd) (HUVECs Intron 4 variant c/c): 64.00 (0) nmols/L
Net increase over control NO/ONOO− (mean ± sd) (HUVECs Intron 4 variant c/c): 0.46 (0)
Net increase over control ONOO− (mean ± sd) (HUVECs Intron 4 variant c/c): −98.00 (0) nmols/L
Peak release NO (mean ± sd) (HUVECs Intron 4 variant c/c): 432.67 (0) nmols/L
Peak release NO/ONOO− (mean ± sd) (HUVECs Intron 4 variant c/c): 1.32 (0)
Peak release ONOO− (mean ± sd) (HUVECs Intron 4 variant c/c): 328.33 (0) nmols/L
% Change Ratio, % Change NO/% Change ONOO− (mean ± sd) (HUVECs T-786C variant C/C): −0.62 (0.39)
Net increase over control NO (mean ± sd) (HUVECs T-786C variant C/C): 38.00 (17.39) nmols/L
Net increase over control NO/ONOO− (mean ± sd) (HUVECs T-786C variant C/C): −0.52 (0.36)
Net increase over control ONOO− (mean ± sd) (HUVECs T-786C variant C/C): −82.58 (26.16) nmols/L
Peak release NO (mean ± sd) (HUVECs T-786C variant C/C): 370.17 (86.78) nmols/L
Peak release NO/ONOO− (mean ± sd) (HUVECs T-786C variant C/C): 1.32 (0.71)
Peak release ONOO− (mean ± sd) (HUVECs T-786C variant C/C): 322.33 (110.70) nmols/L
% Change Ratio, % Change NO/% Change ONOO− (mean ± sd) (HUVECs T-786C variant T/C): −0.81 (0.56)
Net increase over control NO (mean ± sd) (HUVECs T-786C variant T/C): 47.26 (23.70) nmols/L
Net increase over control NO/ONOO− (mean ± sd) (HUVECs T-786C variant T/C): −0.86 (0.80)
Net increase over control ONOO− (mean ± sd) (HUVECs T-786C variant T/C): −65.86 (23.41) nmols/L
Peak release NO (mean ± sd) (HUVECs T-786C variant T/C): 396.81 (95.72) nmols/L
Peak release NO/ONOO− (mean ± sd) (HUVECs T-786C variant T/C): 1.41 (0.56)
Peak release ONOO− (mean ± sd) (HUVECs T-786C variant T/C): 310.97 (82.59) nmols/L
Net increase over control NO (mean ± sd) [2]: 45.89 (22.83) nmols/L
Net increase over control NO/ONOO− (mean ± sd) [2]: −0.81 (0.76)
Net increase over control ONOO− (mean ± sd) [2]: −68.33 (24.07) nmols/L
Peak release NO (mean ± sd) [2]: 392.86 (93.35) nmols/L
Peak release NO/ONOO− (mean ± sd) [2]: 1.39 (0.57)
Peak release ONOO− (mean ± sd) [2]: 312.65 (84.87) nmols/L
% Change Ratio, % Change NO/% Change ONOO− (mean ± sd) (HUVECs T-786C variant T/T): −0.90 (0.47)
Net increase over control NO (mean ± sd) (HUVECs T-786C variant T/T): 55.91 (19.06) nmols/L
Net increase over control NO/ONOO− (mean ± sd) (HUVECs T-786C variant T/T): −0.95 (0.67)
Net increase over control ONOO− (mean ± sd) (HUVECs T-786C variant T/T): −76.48 (33.23) nmols/L
Peak release NO (mean ± sd) (HUVECs T-786C variant T/T): 405.83 (58.51) nmols/L
Peak release NO/ONOO− (mean ± sd) (HUVECs T-786C variant T/T): 1.52 (0.45)
Peak release ONOO− (mean ± sd) (HUVECs T-786C variant T/T): 286.47 (76.65) nmols/L
% increase in peak NO generation, range within genotype groups (Table u1): 11.6 to 17.4%
increase in NO/OONO− ratio, range over all genotypes (Table u3): 37-53%
peak release of NO versus control (all genotypes (Table b1)): increase
greater net increase in NO, major allele variant vs minor allele carriers (exon 7, p 0.10): 22%
greater net increase in NO, major allele variant vs minor allele carriers (promoter, p 0.12): 22%
